Data from patent publication US6348570B1, “Chromophore containing compounds and their use in determining interleukin-1β convertase activity” (Merck & Co., Inc., priority 1991, dated 2002).
Starred links: 1 amine or outer side, 2 acyl side, 3 side chain; linkers in the order of their positions; H or OH if unused. Non-standard residues stand in square brackets, D forms with d. Residues, ends and D or L forms follow the SMILES beside them. No end group written: not given here. *: point of attachment. 3‑amino‑4‑oxobutanoic acid = aspartic acid with its alpha-carboxyl as an aldehyde, O=C[C@H](CC(=O)[*:3])N[*:1]; AMC = Cc1cc(=O)oc2cc(N*)ccc12

What was measured:
[1] = molecular target: T1, Interleukin-1β convertase (ICE), DEAE-purified THP-1 cell lysate (Homo sapiens, UniProt P29466); assay: Coupled fluorometric ICE assay with leucine aminopeptidase (LAPM); assay type: biochemical; set-up: Activity of DEAE-purified THP-1 cell lysate; endogenous in cells; host or cells: THP-1 cells; cytosolic extract fractionated on a DEAE-5PW HPLC column; details: 25° C.
T1 sequence (P29466 120-297 limits assumed): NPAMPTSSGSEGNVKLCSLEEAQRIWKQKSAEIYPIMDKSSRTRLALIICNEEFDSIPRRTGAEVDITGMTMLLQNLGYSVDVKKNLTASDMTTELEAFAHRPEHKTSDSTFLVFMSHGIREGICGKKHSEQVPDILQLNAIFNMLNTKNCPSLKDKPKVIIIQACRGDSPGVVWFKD
T1 sequence (P29466 317-404 limits assumed): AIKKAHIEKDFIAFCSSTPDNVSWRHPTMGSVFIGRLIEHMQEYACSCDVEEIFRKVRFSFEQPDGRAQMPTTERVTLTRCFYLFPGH
Experimental: Coupled Assay: Interleukin 1β activity of Activity of DEAE-purified THP-1 cell lysate.
At 25° C., 5 μl of substrate 5 μl of LAPM, 5 μl of ICE were added to […] of buffer.
Reaction is monitored continuously in a Gilford Fluoro-IV Spectrofluorometer. excitation wavelength=380 nm emission wavelength=460 nm 1 uM AMC=100% relative fluoroescence

[2] = molecular target: T1, Interleukin-1β convertase (ICE), DEAE-purified THP-1 cell lysate; assay type: biochemical; set-up: Activity of DEAE-purified THP-1 cell lysate; endogenous in cells; host or cells: THP-1 cells; cytosolic extract fractionated on a DEAE-5PW HPLC column; details: pH 7.5
Experimental: [table] At 25° C., 5 μl of substrate 5 μl of enzyme and 5 μl of sample were added to 485 μl of Buffer as defined above. Liberation of AMC was monitored using a Gilford Fluoro IV Spectrofluorometer using an excitation wavelength of 380 nm and an emmission wavelength of 460 nm. 1 μM AMC=100% relative fluorescence.

[3] = molecular target: T2, Interleukin-1β convertase (ICE) (UniProt P29466 120-297; P29466 317-404, limits assumed); assay: cell-based or functional assay
T2 sequence (looked up) 1: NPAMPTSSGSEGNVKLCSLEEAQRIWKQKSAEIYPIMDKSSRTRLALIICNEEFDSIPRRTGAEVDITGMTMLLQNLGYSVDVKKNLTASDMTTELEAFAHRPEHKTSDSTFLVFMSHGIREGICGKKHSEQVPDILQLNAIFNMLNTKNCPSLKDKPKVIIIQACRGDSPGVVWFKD
T2 sequence (looked up) 2: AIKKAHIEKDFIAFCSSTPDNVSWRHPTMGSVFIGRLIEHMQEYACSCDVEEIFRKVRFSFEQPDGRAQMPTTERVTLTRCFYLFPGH

For CC(=O)N[C@@H](Cc1ccc(O)cc1)C(=O)N[C@H](C(=O)N[C@@H](C)C(=O)N[C@@H](CC(=O)O)C(=O)NCC(=O)Nc1ccc2c(C)cc(=O)oc2c1)C(C)C [Ac-Tyr-Val-Ala-Asp-Gly-AMC, N-(N-Acetyl-tyrosinyl-valinyl-alaninyl-aspartyl-glycinyl)-7-amino-4-methylcoumarin] (Ac-YVADG-{AMC}), the “velocity of the steady state reaction” value ([1]; 5 μl substrate, 5 μl LAPM, 5 μl ICE, pH 7.5) was 0.05 uM AMC/min and the “rate constant that describes the approach to steady state (lag phase)” value ([1]; determined by amount of coupling enzyme LAPM (5 μl of 12.5 units/ml)) was 0.44 ± 0.01 min⁻¹.

With CC(=O)N[C@@H](Cc1ccc(O)cc1)C(=O)N[C@H](C(=O)N[C@@H](C)C(=O)NC(C=O)CC(=O)O)C(C)C (stereo partly drawn) [Compound Z, N-(N-acetyl-tyrosinyl-valinyl-alaninyl)-3-amino-4-oxo butanoic acid] the “rate constant for inhibition” value ([2]; 5 μl of 2 μM sample in 500 μl, 25° C.) was 0.25 min⁻¹, the “half-life for the slow onset of inhibition” value [2] was 2.7 min and the type of inhibition ([2]; substrate Ac-Tyr-Val-Ala-Asp-AMC, 25° C.) was “slow, tight-binding inhibitor”.

In the case of Ac-YVA[3‑amino‑4‑oxobutanoic acid] [compound Z (i.e. N-(N-acetyl-tyrosinyl-valinyl-alaninyl)-3-amino-4-oxo butanoic acid)], the “half-life for the slow onset of inhibition” value [3] is reported as 2.7 min.
